molecular target: T1, 5-hydroxytryptamine receptor 6 (Homo sapiens, UniProt P50406); experiment: Antagonist activity at human recombinant 5HT6 receptor expressed in CHO cells; format: cell-based; conditions: not given
T1 sequence (P50406 whole entry): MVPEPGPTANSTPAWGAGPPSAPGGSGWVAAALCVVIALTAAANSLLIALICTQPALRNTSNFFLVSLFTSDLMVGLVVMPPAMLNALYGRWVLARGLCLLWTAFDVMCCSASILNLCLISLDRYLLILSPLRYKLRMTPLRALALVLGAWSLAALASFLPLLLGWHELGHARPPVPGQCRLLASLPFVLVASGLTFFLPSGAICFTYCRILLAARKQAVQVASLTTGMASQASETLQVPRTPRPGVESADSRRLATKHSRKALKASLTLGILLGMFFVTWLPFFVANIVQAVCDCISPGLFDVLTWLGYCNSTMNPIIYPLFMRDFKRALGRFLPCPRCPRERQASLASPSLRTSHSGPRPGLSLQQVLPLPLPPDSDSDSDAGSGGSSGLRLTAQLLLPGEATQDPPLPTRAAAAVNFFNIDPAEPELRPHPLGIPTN

Row | Compound | Ki
1 | CN1CC=C(c2cn(S(=O)(=O)c3cccc4ccccc34)c3ccc(F)cc23)CC1 | 1 nM
2 | COc1ccc(NS(=O)(=O)c2ccc(I)cc2)cc1N1CCNCC1 | 2.3 nM
3 | O=S(=O)(c1cccc(Cl)c1)n1ccc2c(N3CCNCC3)c(Cl)ccc21 | 0.3 nM
4 | O=S(=O)(Nc1ccc2c(c1)CNCCC2)c1csc(C(F)(F)F)c1-c1ccccc1 | 32 nM
5 | COc1ccc(Cl)cc1NS(=O)(=O)c1ccc(OC)c2c1CC[C@H](N(C)C)C2 | 1.7 nM
6 | Fc1ccc2c(c1)c(C1=CCNCC1)cn2Cc1ccccc1 | 10 nM
7 | O=C(c1ccccc1)n1cc(C2=CCNCC2)c2cc(F)ccc21 | 99 nM
8 | O=C(Nc1ccccc1)n1cc(C2=CCNCC2)c2cc(F)ccc21 | 118 nM
9 | CN1CCN(c2cccc3c(S(=O)(=O)c4ccccc4)c[nH]c23)CC1 | 0.5 nM
10 | O=S(=O)(c1cccc(F)c1)c1c[nH]c2c(OCCN3CCCC3)cccc12 | 20 nM
11 | CN1CCC(c2cn(C)c3cc(OS(=O)(=O)c4c(F)cccc4F)ccc23)CC1 | 1 nM
12 | Cc1cc(C)cc(S(=O)(=O)c2ccc3ccnc(N4CCNCC4)c3c2)c1 | 11 nM
13 | CSc1nn2c(N3CCNCC3)nc(C)nc2c1S(=O)(=O)c1ccccc1 | 1.2 nM
14 | O=c1n(C2=CCNCC2)c2ccccc2n1S(=O)(=O)c1ccc2ccccc2c1 | 5.7 nM
15 | O=S(=O)(c1cccc(Cl)c1Cl)N1CCc2c(cccc2N2CCNCC2)C1 | 0.04 nM
16 | COc1ccc(C)cc1S(=O)(=O)Nc1cc(OC2CCNCC2)c2occc2c1 | 1.2 nM
17 | O=S(=O)(c1ccccc1)c1ccc2c(c1)OCCC2N1CCNCC1 (stereo unspecified) | 0.4 nM
18 | CNC[C@@H]1COc2ccc(S(=O)(=O)c3ccccc3)cc2O1 | 0.2 nM
19 | O=S(=O)(c1ccccc1)c1ccc(C2CCNCC2)c2ccccc12 | 3.8 nM
20 | N=C(N)CCC1CCCc2cc(S(=O)(=O)c3ccccc3)ccc21 (stereo unspecified) | 59 nM
21 | CN1CCCC1Cc1c[nH]c2ccc(OC3CCCCC3)cc12 (stereo unspecified) | 0.93 nM
22 | COc1cc(N2CCNCC2)c2ncc(C)c(Oc3ccccc3)c2c1 | 1 nM
23 | COc1cc(Cn2c(=O)ccc3cccc(OC)c32)cc(N2CCNCC2)c1 | 0.9 nM
24 | O=C1COc2c(N3CCNCC3)cccc2N1Cc1ccccc1 | 0.2 nM
25 | O=C1c2cccc(N3CCNCC3)c2Oc2ccc(F)cc2N1Cc1cccc(C(F)(F)F)c1 | 0.3 nM
26 | O=c1[nH]c2c(N3CCNCC3)cccc2n1Cc1ccccc1 | 0.3 nM
27 | Clc1ccc(-c2[nH]c3ccccc3c2/C=N/NC2=NCCN2)cc1 | 10 nM
28 | CC(Nc1ccc2c(c1)CCNCC2)c1ccccc1Cl (stereo unspecified) | 14 nM
29 | Cc1c(S(=O)(=O)Nc2cc3c(c(N4CCN(C)CC4)c2)OCC3)sc2ccc(Cl)cc12 | 1.6 nM
30 | CN1CC2c3ccccc3Oc3ccc(Cl)cc3C2C1 (stereo unspecified) [ASENAPINE] | 0.25 nM

molecular target: T1, 5-hydroxytryptamine receptor 6; experiment: Inhibition of human recombinant 5HT6 receptor expressed in CHO cells; format: cell-based; conditions: not given

Row | Compound | IC50
31 | CN1CC=C(c2cn(S(=O)(=O)c3cccc4ccccc34)c3ccc(F)cc23)CC1 | 24 nM
32 | Nc1ccc(S(=O)(=O)c2cc(Br)nc(N3CCCC3)c2)cc1 | 3.2 nM
33 | COc1ccc(NS(=O)(=O)c2ccc(Br)cc2)cc1N1CCN(C)CC1 | 16 nM
34 | CN1CCC[C@@H]1Cc1cn(S(=O)(=O)c2ccccc2)c2ccc(Cl)cc12 | 8.5 nM

tested on: not listed separately; experiment: Half life in rat; format: ADME, organism-based; conditions: in vivo

Row | Compound | half-life
35 | COc1ccc(NS(=O)(=O)c2sc3ccc(Cl)cc3c2C)cc1N1CCNCC1 | 4.8 h

tested on: not listed separately; experiment: Oral bioavailability in rat; format: ADME, organism-based; conditions: in vivo

Row | Compound | bioavailability
36 | CN1CC=C(c2cn(S(=O)(=O)c3cccc4ccccc34)c3ccc(F)cc23)CC1 | 19%
37 | CN1CCC[C@@H]1Cc1cn(S(=O)(=O)c2ccccc2)c2ccc(Cl)cc12 | 17%
38 | COc1ccc(NS(=O)(=O)c2sc3ccc(Cl)cc3c2C)cc1N1CCNCC1 | > 80%
39 | O=S(=O)(c1ccccc1)c1cnc2c(N3CCNCC3)cccc2c1 [INTEPIRDINE] | 76%

tested on: not listed separately; experiment: Ratio of drug level in brain to plasma in rat; format: ADME; conditions: brain and plasma, read-out: BPR

Row | Compound | Kp
40 | CN1CC=C(c2cn(S(=O)(=O)c3cccc4ccccc34)c3ccc(F)cc23)CC1 | 43
41 | CN1CCC[C@@H]1Cc1cn(S(=O)(=O)c2ccccc2)c2ccc(Cl)cc12 | 23
